Where “and” joins values, the source holds several entries; their conditions need not be identical. Equal entries are not always repeated. Values belong to the compound of their own block, whether it stands above or below them.
Key:
Vasopressin V2 = Vasopressin V2 Antagonist Activity in Conscious Hydrated Rats; assay type: in vivo, rat; details: AVP 0.4 μg/kg i.p.
Description: Vasopressin V2 Antagonist Activity in Conscious Hydrated Rats
Conscious hydrated rats are treated with compounds under study from 0.1 to 100 mg/kg orally or vehicle. Two to four rats are used for each compound. One hour later, arginine vasopressin (AVP, antidiuretic hormore, ADH) dissolved in peanut oil is administered at 0.4 μg/kg intraperitoneally. Two rats in each test would not receive arginine vasopressin but only the vehicle (peanut oil) to serve as water-loading control. Twenty minutes later each rat is given 30 mL/kg of deionized water orally by gavage and is placed individually in a metabolic cage equipped with a funnel and a graduated glass cylinder to collect urine for four hours. Urine volume is measured and osmolality analyzed by use of a Fiske One-Ten osmometer (Fiske Assoc., Norwood, Mass., USA). Urinary sodium, potassium, and chloride are analyzed by use of ion-specific electrodes in a Beckman E3 (Electrolyte 3) Analyzer.

Vasopressin V1 = Vasopressin V1 Antagonist Activity in Conscious Rats (vasopressin vasopressor response); assay type: in vivo, rat; design: Average Change: unit not given here; details: SHR
Description: Vasopressin V1 Antagonist Activity in Conscious Rats
Conscious rats are restrained in a supine position with elastic tape. The area at the base of the tail is locally anesthetized by subcutaneous infiltration with 2% procaine (0.2 ml). Using aseptic technique the ventral caudal tail artery is isolated and a cannula made of PE 10 and 20 (heat-fused) tubing is passed into the lower abdominal aorta. The cannula is secured, heparinized (1000 i.u./cc), sealed and the wound closed with one or two stitches of Dexon 4-0. The caudal vein is also cannulated in the same manner for intravenous drug administration. The duration of the surgery is approximately 5 minutes. Additional local anesthesia (2% procaine or lidocaine) is provided as needed.
The animals are placed in plastic restraining cages in an upright position. The cannula is attached to a Statham P23Db pressure transducer and pulsatile blood pressure is recorded. […] The vasopressin injections are repeated 30,60,90,120,180,240 and 300 min. later. Percentage of antagonism by the compound is calculated using the pre-drug vasopressin vasopressor response as 100%.

oxytocin receptors = target: T1, oxytocin receptors (Rattus norvegicus, UniProt P70536); experiment: Oxytocin Receptor Binding; details: for inhibition at 10 µM: [3H]oxytocin
T1 construct: The uteri are dissected out, cleaned of fat and connective tissues; from tissue; host or cells: uterus of DES-treated female Sprague-Dawley rats
T1 sequence (P70536 1-388): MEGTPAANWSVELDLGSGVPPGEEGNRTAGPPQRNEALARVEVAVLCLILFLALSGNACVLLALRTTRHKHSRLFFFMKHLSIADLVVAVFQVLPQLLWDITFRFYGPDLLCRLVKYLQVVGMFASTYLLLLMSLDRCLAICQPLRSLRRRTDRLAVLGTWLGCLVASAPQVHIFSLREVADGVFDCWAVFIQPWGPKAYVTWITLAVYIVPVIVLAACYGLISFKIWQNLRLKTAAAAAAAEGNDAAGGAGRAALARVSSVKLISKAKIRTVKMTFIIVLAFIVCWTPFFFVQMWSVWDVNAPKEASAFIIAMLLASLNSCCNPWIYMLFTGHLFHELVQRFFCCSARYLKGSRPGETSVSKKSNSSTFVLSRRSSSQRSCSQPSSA
Description: Oxytocin Receptor Binding
Female Sprague-Dawley rats weighing approximately 200-250 g are injected intramuscularly (i.m.) with 0.3 mg/kg of body weight of diethylstilbestrol (DES). The rats are sacrificed 18 hours later under pentobarbital anesthesia. The uteri are dissected out, cleaned of fat and connective tissues and rinsed in 50 ml of normal saline. The tissue pooled from six rats is homogenized in 50 ml of […] Tris.HCl, containing 0.5 mM dithiothreitol and 1.0 mM EDTA, adjusted to pH 7.4, using a polytron at setting 6 with three passes of 10 sec each. The homogenate is passed through two (2) layers of cheesecloth and the filtrate centrifuged at 1000× g for 10 min. The clear supernatant is removed and recentrifuged at 165,000× g for 30 min. The resulting pellet containing the oxytocin receptors is resuspended in 50.0 mM Tris.HCl containing 5.0 mM MgCl2 at pH 7.4, to give a protein concentration of 2.5 mg/ml of tissue suspension. This preparation is used in subsequent binding assays with [^3 H]Oxytocin.
Binding of 3,5-[^3 H]Oxytocin ([^3 H]OT) to its receptors is done in microtiter plates using [^3 H]OT, at various concentrations, in an assay buffer of 50.0 mM Tris.HCl, pH 7.4 and containing 5.0 mM MgCl2, and a mixture of protease inhibitors: BSA, 0.1 mg; aprotinin, 1.0 mg; 1,10-phenanthroline, 2.0 mg; […], 10.0 mg; and PMSF, 0.3 mg per 100 ml of buffer solution. Non-specific binding is determined in the presence of 1.0 uM unlabeled OT. The binding reaction is terminated after 60 min , at 22° C. by rapid filtration through glass fiber filters using a Brandel® cell harvester (Biomedical Research and Development Laboratories, Inc., Gaithersburg, Md.). Competition experiments are conducted at equilibrium using 1.0 nM [^3 H]OT and varying the concentration of the displacing agents. The concentrations of agent displacing 50% of [^3 H]OT at its sites (IC50) are calculated by a computer assisted LUNDON-2 program (LUNDON SOFTWARE INC., Ohio, USA).

[1] = 10 mg/kg i.v., VAS 0.01 i.u./kg, 60 min
[2] = 10 mg/kg i.v., VAS 0.01 i.u./kg, 90 min
[3] = 10 mg/kg i.v., VAS 0.01 i.u./kg, 120 min
[4] = 10 mg/kg i.v., VAS 0.01 i.u./kg, 180 min
[5] = 10 mg/kg i.v., VAS 0.01 i.u./kg, 240 min
[6] = 10 mg/kg i.v., VAS 0.01 i.u./kg, 300 min
[7] = 10 mg/kg i.v., VAS 0.02 i.u./kg, 60 min
[8] = 10 mg/kg i.v., VAS 0.02 i.u./kg, 90 min
[9] = 10 mg/kg i.v., VAS 0.02 i.u./kg, 120 min
[10] = 10 mg/kg i.v., VAS 0.02 i.u./kg, 180 min
[11] = 10 mg/kg i.v., VAS 0.02 i.u./kg, 240 min
[12] = 10 mg/kg i.v., VAS 0.02 i.u./kg, 300 min
[13] = 20 mg/kg i.v., VAS 0.01 i.u./kg, 60 min
[14] = 20 mg/kg i.v., VAS 0.01 i.u./kg, 90 min
[15] = 20 mg/kg i.v., VAS 0.01 i.u./kg, 120 min
[16] = 20 mg/kg i.v., VAS 0.01 i.u./kg, 180 min
[17] = 20 mg/kg i.v., VAS 0.01 i.u./kg, 240 min
[18] = 20 mg/kg i.v., VAS 0.01 i.u./kg, 300 min
[19] = 20 mg/kg i.v., VAS 0.02 i.u./kg, 60 min
[20] = 20 mg/kg i.v., VAS 0.02 i.u./kg, 90 min
[21] = 20 mg/kg i.v., VAS 0.02 i.u./kg, 120 min
[22] = 20 mg/kg i.v., VAS 0.02 i.u./kg, 180 min
[23] = 20 mg/kg i.v., VAS 0.02 i.u./kg, 240 min
[24] = 20 mg/kg i.v., VAS 0.02 i.u./kg, 300 min

inhibition at 10 µM (oxytocin receptors): 21%
Compound: Cc1ccc(F)cc1C(=O)Nc1ccc(C(=O)O)cc1 [Example 417, 4-[(5-Fluoro-2-methylbenzoyl)amino]benzoic acid]

inhibition at 10 µM (oxytocin receptors): 39%
Compound: Cc1c(F)cccc1C(=O)Nc1ccc(C(=O)O)cc1 [Example 418, 4-[(3-fluoro-2-methylbenzoyl)amino]-benzoic acid]

inhibition at 10 µM (oxytocin receptors): 28%
Compound: Cc1ccc(F)cc1C(=O)Nc1ccc(C(=O)O)c(Cl)c1 [Example 419, 4-[(5-fluoro-2-methylbenzoyl)amino]-2-chlorobenzoic acid]

inhibition at 10 µM (oxytocin receptors): 16%
Compound: Cc1ccccc1C(=O)Nc1ccc(C(=O)O)c(Cl)c1 [Example 430, 4-[(2-methylbenzoyl)amino]-2-chloro-benzoic acid]

inhibition at 10 µM (oxytocin receptors): 12%
Compound: Cc1ccccc1C(=O)Nc1ccc(C(=O)O)cc1Cl [Example 433, 4-[(2-methylbenzoyl)amino]-3-chloro-benzoic acid]

The remaining lines, values behind:

Compound: O=C(Nc1ccc(C(=O)N2Cc3cccn3-c3ccccc32)cc1)c1cc(Cl)ccc1Cl [Example 16, N-[4-(pyrrolo[1,2-a]quinoxalin-5(4H)-ylcarbonyl)phenyl]-2,5-dichloro-benzamide]
Osmolality (Vasopressin V2; 10 mg/kg orally): 1242 mOsm/kg
Urine Volume (Vasopressin V2; 10 mg/kg orally): 5.5 ml/4 hrs
Osmolality (Vasopressin V2; 30 mg/kg orally): 1295 mOsm/kg
Urine Volume (Vasopressin V2; 30 mg/kg orally): 8 ml/4 hrs

Compound: Cc1cc(C(=O)N2Cc3cccn3Cc3ccccc32)ccc1N [Example 95, 10,11-Dihydro-10-(4-amino-3-methylbenzoyl)-5H-pyrrolo[2,1-c][1,4]benzodiazepine]
% Inhibition (Vasopressin V1; 10 mg/kg i.v., VAS 0.01 i.u./kg, 30 min): 35% and 65%
% Inhibition (Vasopressin V1; [1]): 78%
Average Change (Vasopressin V1; [1]): 7
% Inhibition (Vasopressin V1; [2]): 58%
Average Change (Vasopressin V1; [2]): 13.5
% Inhibition (Vasopressin V1; [3]): 58%
Average Change (Vasopressin V1; [3]): 13.5
% Inhibition (Vasopressin V1; [4]): 52%
Average Change (Vasopressin V1; [4]): 15.5
% Inhibition (Vasopressin V1; [5]): 43%
Average Change (Vasopressin V1; [5]): 18.5
% Inhibition (Vasopressin V1; [6]): 52%
Average Change (Vasopressin V1; [6]): 15.5
% Inhibition (Vasopressin V1; [7]): 78%
Average Change (Vasopressin V1; [7]): 12.5
% Inhibition (Vasopressin V1; [8]): 72%
Average Change (Vasopressin V1; [8]): 16
% Inhibition (Vasopressin V1; [9]): 70%
Average Change (Vasopressin V1; [9]): 17.5
% Inhibition (Vasopressin V1; [10]): 72%
Average Change (Vasopressin V1; [10]): 16
% Inhibition (Vasopressin V1; [11]): 31%
Average Change (Vasopressin V1; [11]): 39.5
% Inhibition (Vasopressin V1; [12]): 27%
Average Change (Vasopressin V1; [12]): 42
% Inhibition (Vasopressin V1; [13]): 67%
Average Change (Vasopressin V1; [13]): 15
% Inhibition (Vasopressin V1; [14]): 70%
Average Change (Vasopressin V1; [14]): 13.5
% Inhibition (Vasopressin V1; [15]): 47%
Average Change (Vasopressin V1; [15]): 24
% Inhibition (Vasopressin V1; [16]): 48%
Average Change (Vasopressin V1; [16]): 23.5
% Inhibition (Vasopressin V1; [17]): 53%
Average Change (Vasopressin V1; [17]): 21.5
% Inhibition (Vasopressin V1; [18]): 46%
Average Change (Vasopressin V1; [18]): 24.5
% Inhibition (Vasopressin V1; [19]): 68%
Average Change (Vasopressin V1; [19]): 19.5
% Inhibition (Vasopressin V1; [20]): 61%
Average Change (Vasopressin V1; [20]): 24
% Inhibition (Vasopressin V1; [21]): 53%
Average Change (Vasopressin V1; [21]): 28.5
% Inhibition (Vasopressin V1; [22]): 44%
Average Change (Vasopressin V1; [22]): 34
% Inhibition (Vasopressin V1; [23]): 44%
Average Change (Vasopressin V1; [23]): 34
% Inhibition (Vasopressin V1; [24]): 39%
Average Change (Vasopressin V1; [24]): 37.5

Compound: Nc1ccc(C(=O)N2Cc3cccn3Cc3ccccc32)c(Cl)c1 [Example 416, 10,11-Dihydro-10-(2-chloro-4-aminobenzoyl)-5H-pyrrolo[2,1-c][1,4]benzodiazepine]
IC50 (oxytocin receptors; 1.0 nM [3H]oxytocin): 7.4 µM
inhibition at 10 µM (oxytocin receptors): 44.6%

Compound: Cc1c(F)cccc1C(=O)Nc1ccc(C(=O)O)c(Cl)c1 [Example 420]
inhibition at 10 µM (oxytocin receptors): 16%

Compound: O=C(O)c1ccc(NC(=O)c2ccc(Cl)cc2Cl)cc1Cl [Example 429, 4-[(2,4-Dichlorobenzoyl)amino]-2-chlorobenzoic acid]
inhibition at 10 µM (oxytocin receptors): 11%

Compound: Cc1ccccc1C(=O)Nc1c(C)cc(C(=O)O)cc1C [Example 431, 4-[(2-methylbenzoyl)amino]-3,5-di-methylbenzoic acid]
inhibition at 10 µM (oxytocin receptors): 18%

Compound: Cc1cc(C(=O)O)cc(C)c1NC(=O)c1ccc(Cl)cc1Cl [Example 432, 4-[(2,4-dichlorobenzoyl)amino]-3,5-dimethylbenzoic acid]
inhibition at 10 µM (oxytocin receptors): 19%

Compound: Cc1c(F)cccc1C(=O)Nc1ccc(C(=O)O)cc1Cl [Example 435, 4-[(3-fluoro-2-methylbenzoyl)amino]-3-chlorobenzoic acid]
inhibition at 10 µM (oxytocin receptors): 10%

Reference: patent US5624923A, “Tricyclic diazepine vasopressin antagonists and oxytocin antagonists” (priority 1995, dated 1997)
